According to US9499550B2 (BRISTOL-MYERS SQUIBB COMPANY, priority 2012, dated 2016):

Experiments:
[1] = test system: HCV genotype 1a (H77 strain) replicon in HUH-7 cells; assay: HCV replicon luciferase reporter assay, genotype 1a; format: cell-based; conditions: Hepatitis C virus, Huh-7, 72 h, HCV genotype 1a replicon luciferase, 3 days incubation, read-out: LE_1a (EC50, range)
In short: (§1)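 Replicon inhibition for both genotypes was measured as Renilla luciferase signal (EnduRen, 7.5 μM final, 2 h) after 3-day, 37° C exposure of replicon-bearing HUH-7 cells in 4% FCS DMEM, 0.5% DMSO. The 1b construct carries S1179I; the 1a H77 construct carries P1496L and S2204I. Twenty-point, 3-fold dilutions were fitted four-parametrically for EC50, and CC50 was taken from multiplexed Cell Titer-Blue.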

[2] = test system: HCV genotype 1b (Con1) replicon in HUH-7 cells; assay: HCV replicon luciferase reporter assay, genotype 1b; format: cell-based; conditions: Hepatitis C virus, Huh-7, 72 h, HCV genotype 1b replicon luciferase, 3 days incubation, read-out: LE_1b (EC50, range)
In short: as §1

| SMILES | EC50 [1] | EC50 [2] |
| --- | --- | --- |
| CC[C@@H]1C[C@H](C)CC/C=C\[C@@H]2C[C@@]2(C(=O)NS(=O)(=O)C2(C)CC2)NC(=O)[C@@H]2C[C@@H](Oc3nc(-c4ccc(OC(C)C)cn4)cc4cc(OC)ccc34)CN2C(=O)[C@H]1NC(=O)OC(C)(C)C(F)(F)F [Compound 5489, 1,1,1-trifluoro-2-methylpropan-2-yl((2R,6S,7R,9R,13aS,14aR,16aS,Z)-7-ethyl-2-((3-(5-isopropoxypyridin-2-yl)-6-methoxyisoquinolin-1-yl)oxy)-9-methyl-14a-(((1-methylcyclopropyl)sulfonyl)carbamoyl)-5,16-dioxo-1,2,3,5,6,7,8,9,10,11,13a,14,14a,15,16,16a-hexadecahydrocyclopropa[e]pyrrolo[1,2-a][1,4]diazacyclopentadecin-6-yl)carbamate] | 1.01 to 5 nM | 1.01 to 5 nM |
| [2H]C([2H])([2H])Oc1cc2ccnc(O[C@@H]3C[C@H]4C(=O)N[C@]5(C(=O)NS(=O)(=O)C6(C)CC6)C[C@H]5/C=C\CC[C@@H](C)C[C@@H](CC)[C@H](NC(=O)OC(C)(C)C(F)(F)F)C(=O)N4C3)c2cc1F [Compound 5503] | 1.01 to 5 nM | 0.51 to 1 nM |
| [2H]C([2H])([2H])Oc1cc2ccnc(O[C@@H]3C[C@H]4C(=O)N[C@]5(C(=O)NS(=O)(=O)C6(C)CC6)C[C@H]5/C=C\CC[C@@H](C)C[C@@H](CC)[C@H](NC(=O)OC(C([2H])([2H])[2H])(C([2H])([2H])[2H])C(F)(F)F)C(=O)N4C3)c2cc1F [Compound 5505] | 5.01 to 35 nM | 1.01 to 5 nM |
| CC[C@@H]1C[C@H](C)CC/C=C\[C@@H]2C[C@@]2(C(=O)NS(=O)(=O)C2(C)CC2)NC(=O)[C@@H]2C[C@@H](Oc3nccc4cc(OC)ccc34)CN2C(=O)[C@H]1NC(=O)OC(C)(C)C(F)F [Compound 5523, 1,1-difluoro-2-methylpropan-2-yl((2R,6S,7R,9R,13aS,14aR,16aS,Z)-7-ethyl-2-((6-methoxyisoquinolin-1-yl)oxy)-9-methyl-14a-(((1-methylcyclopropyl)sulfonyl)carbamoyl)-5,16-dioxo-1,2,3,5,6,7,8,9,10,11,13a,14,14a,15,16,16a-hexadecahydrocyclopropa[e]pyrrolo[1,2-a][1,4]diazacyclopentadecin-6-yl)carbamate] | 1.01 to 5 nM | 0.51 to 1 nM |
| CCOc1cc2ccnc(O[C@@H]3C[C@H]4C(=O)N[C@]5(C(=O)NS(=O)(=O)C6(C)CC6)C[C@H]5/C=C\CC[C@@H](C)C[C@@H](CC)[C@H](NC(=O)OC(C)(C)C(F)F)C(=O)N4C3)c2cc1F [Compound 5525, 1,1-difluoro-2-methylpropan-2-yl((2R,6S,7R,9R,13aS,14aR,16aS,Z)-2-((6-ethoxy-7-fluoroisoquinolin-1-yl)oxy)-7-ethyl-9-methyl-14a-(((1-methylcyclopropyl)sulfonyl)carbamoyl)-5,16-dioxo-1,2,3,5,6,7,8,9,10,11,13a,14,14a,15,16,16a-hexadecahydrocyclopropa[e]pyrrolo[1,2-a][1,4]diazacyclopentadecin-6-yl)carbamate] | 1.01 to 5 nM | 0.51 to 1 nM |
| CC[C@@H]1C[C@H](C)CC/C=C\[C@@H]2C[C@@]2(C(=O)NS(=O)(=O)C2(C)CC2)NC(=O)[C@@H]2C[C@@H](Oc3nccc4cc(OC)c(F)cc34)CN2C(=O)[C@H]1NC(=O)OC(C)(C)C(F)F [Compound 5527, 1,1-difluoro-2-methylpropan-2-yl((2R,6S,7R,9R,13aS,14aR,16aS,Z)-7-ethyl-2-((7-fluoro-6-methoxyisoquinolin-1-yl)oxy)-9-methyl-14a-(((1-methylcyclopropyl)sulfonyl)carbamoyl)-5,16-dioxo-1,2,3,5,6,7,8,9,10,11,13a,14,14a,15,16,16a-hexadecahydrocyclopropa[e]pyrrolo[1,2-a][1,4]diazacyclopentadecin-6-yl)carbamate] | 1.01 to 5 nM | 0.51 to 1 nM |
| CC[C@@H]1C[C@H](C)CC/C=C\[C@@H]2C[C@@]2(C(=O)NS(=O)(=O)C2(C)CC2)NC(=O)[C@@H]2C[C@@H](Oc3ncc(OC)c4ccc(F)cc34)CN2C(=O)[C@H]1NC(=O)OC(C)(C)C(F)F [Compound 5529, 1,1-difluoro-2-methylpropan-2-yl((2R,6S,7R,9R,13aS,14aR,16aS,Z)-7-ethyl-2-((7-fluoro-4-methoxyisoquinolin-1-yl)oxy)-9-methyl-14a-(((1-methylcyclopropyl)sulfonyl)carbamoyl)-5,16-dioxo-1,2,3,5,6,7,8,9,10,11,13a,14,14a,15,16,16a-hexadecahydrocyclopropa[e]pyrrolo[1,2-a][1,4]diazacyclopentadecin-6-yl)carbamate] | 1.01 to 5 nM | 0.1 to 0.5 nM |
| CCOc1cnc(O[C@@H]2C[C@H]3C(=O)N[C@]4(C(=O)NS(=O)(=O)C5(C)CC5)C[C@H]4/C=C\CC[C@@H](C)C[C@@H](CC)[C@H](NC(=O)OC(C)(C)C(F)F)C(=O)N3C2)c2ccccc12 [Compound 5531, 1,1-difluoro-2-methylpropan-2-yl((2R,6S,7R,9R,13aS,14aR,16aS,Z)-2-((4-ethoxyisoquinolin-1-yl)oxy)-7-ethyl-9-methyl-14a-(((1-methylcyclopropyl)sulfonyl)carbamoyl)-5,16-dioxo-1,2,3,5,6,7,8,9,10,11,13a,14,14a,15,16,16a-hexadecahydrocyclopropa[e]pyrrolo[1,2-a][1,4]diazacyclopentadecin-6-yl)carbamate] | 1.01 to 5 nM | 0.51 to 1 nM |
| CC[C@@H]1C[C@H](C)CC/C=C\[C@@H]2C[C@@]2(C(=O)NS(=O)(=O)C2(C)CC2)NC(=O)[C@@H]2C[C@@H](Oc3ncc(OC)c4ccccc34)CN2C(=O)[C@H]1NC(=O)OC(C)(C)C(F)F [Compound 5533, 1,1-difluoro-2-methylpropan-2-yl((2R,6S,7R,9R,13aS,14aR,16aS,Z)-7-ethyl-2-((4-methoxyisoquinolin-1-yl)oxy)-9-methyl-14a-(((1-methylcyclopropyl)sulfonyl)carbamoyl)-5,16-dioxo-1,2,3,5,6,7,8,9,10,11,13a,14,14a,15,16,16a-hexadecahydrocyclopropa[e]pyrrolo[1,2-a][1,4]diazacyclopentadecin-6-yl)carbamate] | 1.01 to 5 nM | 0.1 to 0.5 nM |
| CC[C@@H]1C[C@H](C)CC/C=C\[C@@H]2C[C@@]2(C(=O)NS(=O)(=O)C2(C)CC2)NC(=O)[C@@H]2C[C@@H](Oc3nccc4c5c(ccc34)OCCO5)CN2C(=O)[C@H]1NC(=O)OC(C)(C)C(F)F [Compound 5535, 1,1-difluoro-2-methylpropan-2-yl((2R,6S,7R,9R,13aS,14aR,16aS,Z)-2-((2,3-dihydro-[1,4]dioxino[2,3-f]isoquinolin-7-yl)oxy)-7-ethyl-9-methyl-14a-(((1-methylcyclopropyl)sulfonyl)carbamoyl)-5,16-dioxo-1,2,3,5,6,7,8,9,10,11,13a,14,14a,15,16,16a-hexadecahydrocyclopropa[e]pyrrolo[1,2-a][1,4]diazacyclopentadecin-6-yl)carbamate] | 5.01 to 35 nM | 1.01 to 5 nM |
| CC[C@@H]1C[C@H](C)CC/C=C\[C@@H]2C[C@@]2(C(=O)NS(=O)(=O)C2CC2)NC(=O)[C@@H]2C[C@@H](Oc3ncc(OC)c4ccccc34)CN2C(=O)[C@H]1NC(=O)OC(C)(C)C(F)F [Compound 5537, 1,1-difluoro-2-methylpropan-2-yl((2R,6S,7R,9R,13aS,14aR,16aS,Z)-14a-((cyclopropylsulfonyl)carbamoyl)-7-ethyl-2-((4-methoxyisoquinolin-1-yl)oxy)-9-methyl-5,16-dioxo-1,2,3,5,6,7,8,9,10,11,13a,14,14a,15,16,16a-hexadecahydrocyclopropa[e]pyrrolo[1,2-a][1,4]diazacyclopentadecin-6-yl)carbamate] | 0.51 to 1 nM | 0.1 to 0.5 nM |
| CC[C@@H]1C[C@H](C)CC/C=C\[C@@H]2C[C@@]2(C(=O)NS(=O)(=O)C2CC2)NC(=O)[C@@H]2C[C@@H](Oc3nc(OC)cc4ccccc34)CN2C(=O)[C@H]1NC(=O)OC(C)(C)C [Compound 6001, tert-butyl ((2R,6S,7R,9R,13aS,14aR,16aS,Z)-14a-((cyclopropylsulfonyl)carbamoyl)-7-ethyl-2-((3-methoxyisoquinolin-1-yl)oxy)-9-methyl-5,16-dioxo-1,2,3,5,6,7,8,9,10,11,13a,14,14a,15,16,16a-hexadecahydrocyclopropa[e]pyrrolo[1,2-a][1,4]diazacyclopentadecin-6-yl)carbamate] | < 5.46 nM | < 5.46 nM |
| CC[C@@H]1C[C@@H](C)CC/C=C\[C@@H]2C[C@@]2(C(=O)NS(=O)(=O)C2CC2)NC(=O)[C@@H]2C[C@@H](Oc3nc(OC)cc4ccccc34)CN2C(=O)[C@H]1NC(=O)OC(C)(C)C(F)(F)F [Compound 6002, 1,1,1-trifluoro-2-methylpropan-2-yl((2R,6S,7R,9S,13aS,14aR,16aS,Z)-14a-((cyclopropylsulfonyl)carbamoyl)-7-ethyl-2-((3-methoxyisoquinolin-1-yl)oxy)-9-methyl-5,16-dioxo-1,2,3,5,6,7,8,9,10,11,13a,14,14a,15,16,16a-hexadecahydrocyclopropa[e]pyrrolo[1,2-a][1,4]diazacyclopentadecin-6-yl)carbamate] | 4.82 to 103 nM | < 5.46 nM |
